Assay [1] addresses T1, FLAG-α1b-adrenoceptor-eYFP (Mesocricetus auratus, UniProt P18841).
T1 sequence (P18841 1-515): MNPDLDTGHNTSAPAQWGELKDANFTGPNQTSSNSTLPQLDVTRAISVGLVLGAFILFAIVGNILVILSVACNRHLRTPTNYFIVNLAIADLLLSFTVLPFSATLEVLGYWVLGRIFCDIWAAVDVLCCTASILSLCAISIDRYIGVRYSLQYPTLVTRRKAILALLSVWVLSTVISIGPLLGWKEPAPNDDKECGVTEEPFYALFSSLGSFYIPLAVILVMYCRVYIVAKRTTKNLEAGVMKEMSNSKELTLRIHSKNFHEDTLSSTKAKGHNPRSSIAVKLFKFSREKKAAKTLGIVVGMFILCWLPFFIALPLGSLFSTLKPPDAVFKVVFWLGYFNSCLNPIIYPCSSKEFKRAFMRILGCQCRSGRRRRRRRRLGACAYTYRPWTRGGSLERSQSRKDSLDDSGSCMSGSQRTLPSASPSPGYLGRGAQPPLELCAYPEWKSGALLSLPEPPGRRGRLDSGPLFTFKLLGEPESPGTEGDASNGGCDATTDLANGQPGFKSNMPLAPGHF
Type of assay: binding.

Assay [2] addresses T2, FLAG-α1b-adrenoceptor TMI-TMIV-eYFP (Mesocricetus auratus, UniProt P18841, L166A/L167A/L65A/V66A).
T2 sequence (P18841 1-515 L65A/V66A/L166A/L167A): T1 sequence (P18841 1-515) with L65A, V66A, L166A, L167A
To be noted: pKi, [3H]prazosin competition binding.

Assay [3] deals with T2, FLAG-α1b-adrenoceptor TMI-TMIV-eYFP. Description: Intact cell anti-FLAG ELISA of cell surface receptor. The assay is classed as cell-based. To be noted: for cell surface delivery of mutant receptor (anti-FLAG ELISA): 10^−5 M of each drug.
For assay [4] the target is unchanged. Type of assay: cell-based. To be noted: pre-treated with 10^−7 M overnight, then extensively washed; 0.4 nM [3H]prazosin.
Assay [5] deals with T3, FLAG-α1b-adrenoceptor TMI-TMIV (Mesocricetus auratus, UniProt P18841, L166A/L167A/L65A/V66A).
T3 sequence (P18841 1-515 L65A/V66A/L166A/L167A) 1: T1 sequence (P18841 1-515) with L65A, V66A, L166A, L167A
T3 sequence (P18841 1-515 L65A/V66A/L166A/L167A) 2: T1 sequence (P18841 1-515) with L65A, V66A, L166A, L167A
T3 sequence (P18841 1-515 L65A/V66A/L166A/L167A) 3: T1 sequence (P18841 1-515) with L65A, V66A, L166A, L167A
Description: Sequential 3-colour FRET imaging. The assay is classed as cell-based. To be noted: 10^−7 M, 12 h; transiently transfected HEK-293 cells.

Where a chain is given by its changes, count along the chain named.

On to `CNC[C@H](O)c1ccc(O)c(O)c1` [adrenaline], for which the Ki (commonly a measure of affinity in units of concentration, obtained from inhibition or displacement) in assay [1] was 501 nM; in assay [2] it was 63.1 nM.
As to `O=C(c1ccc(F)cc1)C1CCN(CCn2c(=O)[nH]c3ccccc3c2=O)CC1` [ketanserin], the “cell surface delivery of mutant receptor (anti-FLAG ELISA)” value (from here on “cell surface delivery of mutant receptor”) in assay [3] (overnight treatment) is listed as “significant cell surface delivery”.
Take `COc1cc2nc(N3CCN(C(=O)c4ccco4)CC3)nc(N)c2cc1OC` [prazosin]: the “cell surface mutant receptor by intact cell [3H]prazosin binding” value in assay [4] is given as “marked increases of cell surface FLAG-α1b-adrenoceptor TMI-TMIV-eYFP”. Moreover, in assay [3] (overnight treatment), the “cell surface delivery of mutant receptor” value is given as “most effective ligand tested” and the “concentration of maximum effect on cell surface mutant receptor” value was 10^−7 M. The “incubation time for maximum effect on cell surface mutant receptor” value in assay [3] (results not shown) lay in the range of 14 to 16 h. Moreover, the “sequential FRET signal (eCFP to dsRed2 FRET)” value in assay [5] is “increased”.
`Cc1nc2sccn2c(=O)c1CCN1CCC(=C(c2ccc(F)cc2)c2ccc(F)cc2)CC1` [ritanserin]: in assay [3] (overnight treatment), the “cell surface delivery of mutant receptor” value was “only ketanserin caused significant cell surface delivery”.

The values above are taken from paper PMC2605960 (Biochemical Journal, 2008).
